From patent US12421254B2, “KRAS modulators and uses thereof” (Quanta Therapeutics, Inc., priority 2023, dated 2025) come the findings set out here.

Read-outs that look alike come from different tables or passages of the source.

The target of test [1] is GST-tagged KRAS-G12D (2-169) (Homo sapiens, UniProt P01116, G12D). Description: Nucleotide exchange assay (NEA), SOS-mediated, HTRF, KRAS G12D. The class given is biochemical. The following applies: IC50 extracted at 30 min, 20 nM SOScat. An excerpt:
(§1) This activity is tightly regulated by GTPase activating proteins (GAPs) and guanine nucleotide exchange factors (GEFs). GEFs, such as SOS1/2, activate Ras proteins by exchanging GDP for GTP, thus returning Ras to its active conformation (Simanshu, Nissley, & McCormick, 2017). […] Homogenous time resolved fluorescence (HTRF) was used to detect SOS-mediated binding of a fluorescent GTP analog, GTP-DY-647P1 (Jena Biosciences NU-820-647P1) to GST-tagged KRAS-G12D (2-169) or to GST-tagged KRAS-G12V (2-169, Reaction Biology, MSC-11-540).
(§2) GST-tagged KRAS-G12D (2-169) and anti-GST MAb Tb Cryptate Gold (CisBio 61GSTTLB) were diluted into assay buffer (20 mM HEPES, pH 7.3, 150 mM NaCl, 5 mM MgCl2, 0.05% BSA 0.0025% NP40, 1 mM DTT) to prepare a 2.5× donor solution. 5× compound was added to the protein mixture and incubated for 1 h at RT. 2.5× acceptor solution containing SOS1cat (564-1049, Reaction Biology MSC-11-502) and GTP-DY-647P1 were then added to the donor KRAS mixture such that the final concentration of the reaction contained 0.25 nM GST-tagged KRAS-G12D (2-169), 20 nM SOScat, and 150 nM GTP-DY-647P1. The reaction was monitored using at RT with the Envision multimode plate reader (Ex/Em 337/665, […]) up to 90 minutes at 5 minute intervals. To monitor KRAS-G12V SOS-mediated nucleotide exchange, 80 nM SOS was added to reaction instead of 20 nM. All other components were the same as previously described. Data was blanked to reactions without SOS1 and % inhibition was calculated such that DMSO only =0% and blank=100%. Curve fitting was done using a 4 parameter fit. Reported IC50 values were extracted at 30 min and 90 min for the KRAS-G12D and KRAS-G12V assays, respectively.
NEA KRAS G12D IC50 (uM) values of selected compounds are depicted in Table 2 with compounds having a value <0.01 uM as ++++; ≥0.01 uM to 0.1 uM as +++; ≥0.1 uM to 1 uM as ++; ≥1 uM to 20 uM as +; and ≥20 uM as NA.

In test [2] the target is GST-tagged KRAS-G12V (2-169) (Homo sapiens, UniProt P01116, G12V). In words: Nucleotide exchange assay (NEA), SOS-mediated, HTRF, KRAS G12V. The class given is biochemical. To be noted: Table 4; IC50 extracted at 90 min; 80 nM SOS.
Excerpt: as §1, §2

The mark [3] stands for this setting: Table 4, read-out: NEA G12D IC50.

GST-tagged KRAS-G12D (2-169), sequence (P01116 2-169 isoform P01116-2 G12D): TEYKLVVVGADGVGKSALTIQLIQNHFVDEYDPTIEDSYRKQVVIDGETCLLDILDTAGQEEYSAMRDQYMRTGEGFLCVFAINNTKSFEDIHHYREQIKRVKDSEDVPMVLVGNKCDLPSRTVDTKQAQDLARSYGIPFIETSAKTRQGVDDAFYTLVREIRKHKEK
GST-tagged KRAS-G12V (2-169), sequence (P01116 2-169 isoform P01116-2 G12V): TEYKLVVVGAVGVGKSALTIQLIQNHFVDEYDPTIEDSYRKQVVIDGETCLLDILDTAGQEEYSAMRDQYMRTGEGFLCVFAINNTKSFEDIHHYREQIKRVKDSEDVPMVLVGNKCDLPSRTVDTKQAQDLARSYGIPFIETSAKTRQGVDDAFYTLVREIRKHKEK

Consider `N#Cc1c(N)sc2c1C1(CN(c3nc(OC[C@@]45CCCN4C[C@H](F)C5)nc(N(CCN)C4(C#N)CC4)n3)C1)SC2` [Compound 272, 2-amino-1′-[4-[2-aminoethyl-(1-cyanocyclopropyl)amino]-6-[[(2R,8S)-2-fluoro-1,2,3,5,6,7-hexahydropyrrolizin-8-yl]methoxy]-1,3,5-triazin-2-yl]spiro[6H-thieno[3,4-b]thiophene-4,3′-azetidine]-3-carbonitrile; formic acid], for which the results for the IC50 in test [1] (setting [3]) and in test [2] were less than 0.01 µM and 10 to 100 nM, respectively.

For `CCN(c1nc(OC[C@]23CC[C@H](CN(C)C2)N3)nc(N2CC3(C2)SCc2sc(N)c(C#N)c23)n1)[C@H](C)c1cccnc1N` [Compound 214, 2′-amino-1-(4-(((R)-1-(2-aminopyridin-3-yl)ethyl)(ethyl)amino)-6-(((1S,5R)-3-methyl-3,8-diazabicyclo[3.2.1]octan-1-yl)methoxy)-1,3,5-triazin-2-yl)-6′H-spiro[azetidine-3,4′-thieno[3,4-b]thiophene]-3′-carbonitrile], the IC50 is less than 0.01 µM in test [1] (setting [3]) and less than 10 nM in test [2].

As for `C[C@H](c1cccnc1N)N(CC(F)F)c1nc(OCC2(CN(C)C)CC2(F)F)nc(N2CC3(C2)SCc2sc(N)c(C#N)c23)n1` (stereo partly drawn) [Compound 220, 2-amino-1′-[4-[[(1R)-1-(2-amino-3-pyridyl)ethyl]-(2,2-difluoroethyl)amino]-6-[[1-[(dimethylamino)methyl]-2,2-difluoro-cyclopropyl]methoxy]-1,3,5-triazin-2-yl]spiro[6H-thieno[3,4-b]thiophene-4,3′-azetidine]-3-carbonitrile], the results for the IC50 in test [1] (setting [3]) and in test [2] were less than 0.01 µM and less than 10 nM, respectively.

Consider `N#Cc1c(N)sc2c1C1(CC2)CN(c2nc(OC[C@@]34CCCN3C[C@H](F)C4)nc(N(CCO)Cc3c(F)ccnc3N)n2)C1` [Compound 154, 2-amino-1′-[4-[(2-amino-4-fluoro-3-pyridyl)methyl-(2-hydroxyethyl)amino]-6-[[(2R,8S)-2-fluoro-1,2,3,5,6,7-hexahydropyrrolizin-8-yl]methoxy]-1,3,5-triazin-2-yl]spiro[5,6-dihydrocyclopenta[b]thiophene-4,3′-azetidine]-3-carbonitrile], for which the IC50 in test [1] (setting [3]) is 0.01 to 0.1 µM; in test [2], less than 10 nM.

Turning to `N#Cc1c(N)sc2c1C1(CN(c3nc(OC[C@@]45CCCN4C[C@H](F)C5)nc(Oc4cc[nH]n4)n3)C1)SC2` [Compound 165, 2-amino-1′-[4-[[(2R,8S)-2-fluoro-1,2,3,5,6,7-hexahydropyrrolizin-8-yl]methoxy]-6-(1H-pyrazol-3-yloxy)-1,3,5-triazin-2-yl]spiro[6H-thieno[3,4-b]thiophene-4,3′-azetidine]-3-carbonitrile], the figures for the IC50 in test [1] (setting [3]) and in test [2] were 1 to 20 µM and 100 to 1000 nM, respectively.

Turning to `CCN(c1nc(OCC2(COC)CCCC2)nc(N2CC3(C2)SCc2sc(N)c(C#N)c23)n1)[C@H](C)c1cccnc1N` [Compound 222, 2-amino-1′-[4-[[(1R)-1-(2-amino-3-pyridyl)ethyl]-ethyl-amino]-6-[[1-(methoxymethyl)cyclopentyl]methoxy]-1,3,5-triazin-2-yl]spiro[6H-thieno[3,4-b]thiophene-4,3′-azetidine]-3-carbonitrile], the figures for the IC50 in test [1] (setting [3]) and in test [2] were 1 to 20 µM and 100 to 1000 nM, respectively.

For `N#Cc1c(N)sc2c1C1(CC2)CN(c2nc(OC[C@@]34CCCN3C[C@H](F)C4)nc(O[C@@H]3COC[C@@H]3O)n2)C1` (racemic) [Compound 28, 2-amino-1′-[4-[[(2R,8S)-2-fluoro-1,2,3,5,6,7-hexahydropyrrolizin-8-yl]methoxy]-6-[rac-(3R,4S)-4-hydroxytetrahydrofuran-3-yl]oxy-1,3,5-triazin-2-yl]spiro[5,6-dihydrocyclopenta[b]thiophene-4,3′-azetidine]-3-carbonitrile], the figures for the IC50 in test [1] (setting [3]) and in test [2] were 1 to 20 µM and 100 to 1000 nM, respectively.

For the compound `N#Cc1c(N)sc2c1C1(CC2)CN(c2nc(OC[C@@]34CCCN3C[C@H](F)C4)nc(N3CCCC(C#N)C(O)C3)n2)C1` (mixture of isomers) [Compound 96, 2-amino-1′-[4-(4-cyano-3-hydroxy-azepan-1-yl)-6-[[rac-(2R,8S)-2-fluoro-1,2,3,5,6,7-hexahydropyrrolizin-8-yl]methoxy]-1,3,5-triazin-2-yl]spiro[5,6-dihydrocyclopenta[b]thiophene-4,3′-azetidine]-3-carbonitrile], the IC50 lay in the range of 0.1 to 1 µM in test [1] (setting [3]) and 10 to 100 nM in test [2].

`CN(CC1(C#N)CC1)c1nc(OC[C@@]23CCCN2C[C@H](F)C3)nc(N2CCC3(CCc4sc(N)c(C#N)c43)C2)n1` (stereo partly drawn) [Compound 14, 2-amino-1′-[4-[(1-cyanocyclopropyl)methyl-methyl-amino]-6-[[(2R,8S)-2-fluoro-1,2,3,5,6,7-hexahydropyrrolizin-8-yl]methoxy]-1,3,5-triazin-2-yl]spiro[5,6-dihydrocyclopenta[b]thiophene-4,3′-pyrrolidine]-3-carbonitrile]: the half-inhibitory concentration (IC50) in test [1] (Table 2, read-out: NEA-G12D (uM) IC50) lay within 1 to 20 µM; in test [1] (setting [3]), 1 to 20 µM; in test [2], 1000 to 20000 nM.

Turning to `CN(CC(=O)NC(=N)N)c1nc(OC[C@@]23CCCN2C[C@H](F)C3)nc(N2CC3(C2)SCc2sc(N)c(C#N)c23)n1` [Compound 215, 2-[[4-(2-amino-3-cyano-spiro[6H-thieno[3,4-b]thiophene-4,3′-azetidine]-1′-yl)-6-[[(2R,8S)-2-fluoro-1,2,3,5,6,7-hexahydropyrrolizin-8-yl]methoxy]-1,3,5-triazin-2-yl]-methyl-amino]-N-carbamimidoyl-acetamide], the IC50 fell in the range of 0.1 to 1 µM in test [1] (setting [3]) and 100 to 1000 nM in test [2].

Turning to `N#Cc1c(N)sc2c1C1(CN(c3nc(OC[C@@]45CCCN4C[C@H](F)C5)nc(N4C5CCC4CC(=O)NC5)n3)C1)SC2` (stereo partly drawn) [Compound 271, 2-amino-1′-[4-[[(2R,8S)-2-fluoro-1,2,3,5,6,7-hexahydropyrrolizin-8-yl]methoxy]-6-(4-oxo-3,9-diazabicyclo[4.2.1]nonan-9-yl)-1,3,5-triazin-2-yl]spiro[6H-thieno[3,4-b]thiophene-4,3′-azetidine]-3-carbonitrile], the half-inhibitory concentration (IC50) was in the range of 1 to 20 µM in test [1] (setting [3]) and 100 to 1000 nM in test [2].

Consider `CC(c1n[nH]cc1N)N(C)c1nc(OC[C@@]23CCCN2C[C@H](F)C3)nc(N2CC3(C2)SCc2sc(N)c(C#N)c23)n1` (stereo partly drawn) [Compound 192, 2-amino-1′-[4-[1-(4-amino-1H-pyrazol-3-yl)ethyl-methyl-amino]-6-[[(2R,8S)-2-fluoro-1,2,3,5,6,7-hexahydropyrrolizin-8-yl]methoxy]-1,3,5-triazin-2-yl]spiro[6H-thieno[2,3-c]thiophene-4,3′-azetidine]-3-carbonitrile], for which the figures for the IC50 in test [1] (setting [3]) and in test [2] were 0.1 to 1 µM and 10 to 100 nM, respectively.

Consider `CO/N=C(\C(C)=O)C(=O)N1[C@@H]2CC[C@H]1CN(c1nc(OC[C@@]34CCCN3C[C@H](F)C4)nc(N3CC4(C3)SCc3sc(N)c(C#N)c34)n1)C2` [Compound 161, 2-amino-1′-[4-[[(2R,8S)-2-fluoro-1,2,3,5,6,7-hexahydropyrrolizin-8-yl]methoxy]-6-[(1R,5S)-8-[(2Z)-2-methoxyimino-3-oxo-butanoyl]-3,8-diazabicyclo[3.2.1]octan-3-yl]-1,3,5-triazin-2-yl]spiro[6H-thieno[3,4-b]thiophene-4,3′-azetidine]-3-carbonitrile], for which the IC50 in test [1] (setting [3]) lay in the range of 1 to 20 µM; in test [2] it was 100 to 1000 nM.

Regarding `N#Cc1c(N)sc2c1C1(CC2)CN(c2nc(OC[C@@]34CCCN3C[C@H](F)C4)nc(N3CCC[C@H](C#N)[C@@H]3CO)n2)C1` (racemic) [Compound 63, 2-amino-1′-[4-[rac-(2R,3S)-3-cyano-2-(hydroxymethyl)-1-piperidyl]-6-[[(2R,8S)-2-fluoro-1,2,3,5,6,7-hexahydropyrrolizin-8-yl]methoxy]-1,3,5-triazin-2-yl]spiro[3a,5-dihydrocyclopenta[b]thiophene-4,3′-azetidine]-3-carbonitrile], the IC50 in test [1] (setting [3]) fell in the range of 0.1 to 1 µM; in test [2] it was 100 to 1000 nM.

For the compound `N#Cc1c(N)sc2c1C1(CN(c3nc(OC[C@@]45CCCN4C[C@H](F)C5)nc(N4CC5CC(=O)CC(C4)N5)n3)C1)SC2` [Compound 277, 2-amino-1′-[4-[[(2R,8S)-2-fluoro-1,2,3,5,6,7-hexahydropyrrolizin-8-yl]methoxy]-6-(7-oxo-3,9-diazabicyclo[3.3.1]nonan-3-yl)-1,3,5-triazin-2-yl]spiro[6H-thieno[3,4-b]thiophene-4,3′-azetidine]-3-carbonitrile], the results for the concentration for half-maximal inhibition (IC50) in test [1] (setting [3]) and in test [2] were 0.01 to 0.1 µM and less than 10 nM, respectively.

By IC50 is commonly meant the midpoint of a concentration-inhibition curve.
